Read-outs that look alike come from different tables or passages of the source.

Usually CC50 stands for the concentration that lowers cell viability or growth by half. The term EC50 denotes the concentration at which the effect is half-maximal. As a reminder, the EC90 is the point of the concentration-response curve where the effect stands at 90%. The inhibition is the relative decrease from the control value, in per cent.

Common to all, as to format: cell-based
Data set [1] deals with human rhabdomyosarcoma (RD) cell line. Briefly: Cytotoxicity (MTS) in RD cells. The method, then: Compounds are tested for cytotoxicity using a MTS (3-(4,5-dimethylthiazol-2-yl)-5-(3-carboxymethoxyphenyl)-2-(4-sulfophenyl)-2H-tetrazolium) method and the CC50 (IC50) values (cytotoxic concentrations of drug required to reduce cell viability by 50%) are determined for each test compound in human rhabdomyosarcoma (RD) cell line. In addition, the maximum non-toxic concentrations (MNTC) are also determined for each compound. To avoid potential drug toxicity that would interfere with viral cytopathic effect (CPE), compounds are evaluated at nontoxic concentrations. The resultant inhibitory effect of each test compound is calculated as a percentage of decrease in EV-71 CPE. Briefly, a monolayer of RD cells is prepared in a 96-well plates. The cells are then infected with 1 MOI of EV-71 (BrCr strain) followed by treatment with a single non-toxic dose of each compound in triplicate. The vehicle control wells are treated with 0.1% DMSO diluted in the working media. […] The dose-response antiviral activity of each compound is determined by a virus yield reduction assay method. Briefly, confluent monolayers of RD cells in 96-wells microplate are infected with 0.1 MOI of EV-71 followed by treatment with compounds. […] Quantitative PCR measurement was performed using StepOnePlus real time PCR system ([…]) according to manufacturer's protocol.

Data set [2] has as its system Enterovirus EV-71 (BrCr strain). Briefly: Anti-enterovirus activity, EV-71 virus yield reduction (qRT-PCR) in RD cells. The note with it: 0.1 MOI, 2 days post-treatment. The protocol: Compounds are tested for cytotoxicity using a MTS (3-(4,5-dimethylthiazol-2-yl)-5-(3-carboxymethoxyphenyl)-2-(4-sulfophenyl)-2H-tetrazolium) method and the CC50 (IC50) values (cytotoxic concentrations of drug required to reduce cell viability by 50%) are determined for each test compound in human rhabdomyosarcoma (RD) cell line. In addition, the maximum non-toxic concentrations (MNTC) are also determined for each compound. To avoid potential drug toxicity that would interfere with viral cytopathic effect (CPE), compounds are evaluated at nontoxic concentrations. The resultant inhibitory effect of each test compound is calculated as a percentage of decrease in EV-71 CPE. Briefly, a monolayer of RD cells is prepared in a 96-well plates. The cells are then infected with 1 MOI of EV-71 (BrCr strain) followed by treatment with a single non-toxic dose of each compound in triplicate. The vehicle control wells are treated with 0.1% DMSO diluted in the working media. The plate is then incubated for 48 h at which time the virus-control wells produced detectable CPE. To determine the probable CPE inhibitory effect of test compounds, an MTS assay is performed and effective compounds are chosen for further studies to identify the potency of the compounds and their concentration-dependent manner. The dose-response antiviral activity of each compound is determined by a virus yield reduction assay method. Briefly, confluent monolayers of RD cells in 96-wells microplate are infected with 0.1 MOI of EV-71 followed by treatment with compounds. Effective compounds are further quantified and confirmed with a virus-yield-reduction assay using an optimized in house qRT-PCR to determine the EV-71 RNA copy number after 2 days post-treatment from collected supernatants. qRT-PCR is performed using the EV-71 specific probe/primer mix and qScript-Tough master mix (Quantibio, USA). Quantitative PCR measurement was performed using StepOnePlus real time PCR system ([…]) according to manufacturer's protocol. The median effective concentration (EC50) and the concentration with 90% of inhibitory effect (EC90) are calculated using GraphPad PRISM for Windows, version 5 (GraphPad Software Inc., San Diego, CA, 2005) as the means±standard deviation (SD) of the mean from triplicate assay from three independent experiments.
Background: In qPCR the cycle at which signal appears reflects the starting amount.

The test system of the next data set is SARS-CoV-2. Briefly: microbe, parasite or virus in culture. The note with it: for inhibition at 10 µM: read-out: SARS-CoV-2 Inhibition at 10 μM (%).
A short description of data set [3]: Cellular toxicity assay in Vero cells. The note with it: African green monkey, read-out: Cytotoxicity, CC50, VERO. The method, then: (§1) The toxicity of the compounds was assessed in Vero, human PBM, CEM (human lymphoblastoid), MT-2, and HepG2 cells, as described previously (see Schinazi R. F., Sommadossi J.-P., Saalmann V., Cannon D. L., Xie M.-Y., Hart G. C., Smith G. A. & Hahn E. F. Antimicrob. Agents Chemother. 1990, 34, 1061-67). Cycloheximide was included as positive cytotoxic control, and untreated cells exposed to solvent were included as negative controls. The cytotoxicity CC50 was obtained from the concentration-response curve using the median effective method described previously (see Chou T.-C. & Talalay P. Adv. Enzyme Regul. 1984, 22, 27-55; Belen'kii M. S. & Schinazi R. F. Antiviral Res. 1994, 25, 1-11).

Another data set relates to HCoV (OC43). Kind of data set: In vitro assay for HCoV (OC43), virus yield reduction in Huh7 cells. The note with it: for inhibition at 10 µM: Betacoronavirus 1, OC43, Huh-7, 10 μM. The source says:
In order to determine the potential effect of each selected compound against in vitro replication of SARS-CoV-2 in Vero cells or HCoV (OC43) in Huh7 cells, a confluent cell monolayer in a 96-wells cell culture microplate can be infected at a multiplicity of infection (MOI) of 0.1 and treated with a maximum non-toxic concentration (MNTC) of each compound. To assess the antiviral activity, a virus yield reduction assay using specific qRT-PCR for each virus can be performed.
Dose-Dependent Antiviral Assay. The antiviral effect of each compound selected through the antiviral evaluation assay can be further confirmed by virus yield reduction assay using the optimized qRT-PCR by measuring the RNA copy number for each virus in the supernatant of treated-infected cells. A positive control, such as remdesivir, can be used for each assay.
Statistical analysis. The half-maximal effective concentration (EC50) and the concentration with 90% of inhibitory effect (EC90) can be calculated using GraphPad PRISM for Windows, version 5 (GraphPad Software Inc., San Diego, CA, 2005) or the Chou and Talalay Method.
These methods were used to evaluate certain of the compounds described herein.

Data set [4] can be described thus: Cellular toxicity assay in Huh7 cells. The note with it: human, read-out: Cytotoxicity, CC50, Huh7.
Data set [5] is described as follows: Cellular toxicity assay in CEM cells. The note with it: human, CEM lymphoblastoid cells, read-out: Cytotoxicity, CC50, CEM. The protocol: as §1
[6] abbreviates: Severe acute respiratory syndrome coronavirus 2, 10 μM, Vero cells.
Where [7] appears, read: Severe acute respiratory syndrome coronavirus 2, Vero.

`Cc1cc(C(=O)N[C@@H](Cc2cccc3ccccc23)C(=O)N[C@@H](CC(C)C)C(=O)NC(C=O)C[C@@H]2CCCNC2=O)no1` (some centres unmarked) returned a CC50 in data set [1] above 100 µM. Further, the EC50 in data set [2] (read-out: EC50 against Enterovirus EV-71 (BrCr strain)) came to 0.0085 µM. The EC90 in data set [2] (read-out: EC90 against Enterovirus EV-71 (BrCr strain)) turned out to be 0.0214 µM.

As to `CC(C)C[C@H](NC(=O)[C@H](Cc1ccc(F)cc1)NC(=O)OCc1ccccc1)C(=O)N[C@H](C=O)C[C@@H]1CCCNC1=O` [Compound 35, Benzyl ((S)-3-(4-fluorophenyl)-1-(((S)-4-methyl-1-oxo-1-(((S)-1-oxo-3-((S)-2-oxopiperidin-3-yl)propan-2-yl)amino)pentan-2-yl)amino)-1-oxopropan-2-yl)carbamate], the figures for the inhibition at 10 µM in the data set on SARS-CoV-2 (setting [6]) and in the data set with HCoV (OC43) were 99.8% and 99.9%, respectively. Also, the figures for the CC50 in data set [3] and in data set [4] were above 100 µM and 60 µM, respectively.

In the case of `CC(C)C[C@H](NC(=O)[C@H](Cc1cccc2ccccc12)NC(=O)OCc1ccccc1)C(=O)N[C@@H](C[C@@H]1CCCNC1=O)C(O)S(=O)(=O)O` (stereo partly drawn) [Compound 37, Sodium (5S,8S, 11S)-12-hydroxy-8-isobutyl-5-(naphthalen-1-ylmethyl)-3,6,9-trioxo-11-(((S)-2-oxopiperidin-3-yl)methyl)-1-phenyl-2-oxa-4,7,10-triazadodecane-12-sulfonate], the inhibition at 10 µM in the data set with SARS-CoV-2 (setting [7]) and in the data set on HCoV (OC43) was 99.9% throughout. The EC50 with SARS-CoV-2 (Severe acute respiratory syndrome coronavirus 2, Vero cells, unit inferred, read-out: Activity against SARS-CoV-2 EC50) was found to be 0.3 µM. Besides, in the data set on SARS-CoV-2 (Severe acute respiratory syndrome coronavirus 2, Vero cells, unit inferred, read-out: Activity against SARS-CoV-2 EC90), the EC90 amounted to 4.5 µM.

Turning to `CC(C)C[C@H](NC(=O)[C@H](Cc1cccc2ccccc12)NC(=O)OCc1ccccc1)C(=O)N[C@@H](C[C@@H]1CCCNC1=O)C(O)C(F)(F)F` (stereo partly drawn) [Compound 38, Benzyl ((2S)-1-(((2S)-4-methyl-1-oxo-1-(((2S)-4,4,4-trifluoro-3-hydroxy-1-((S)-2-oxopiperidin-3-yl)butan-2-yl)amino)pentan-2-yl)amino)-3-(naphthalen-1-yl)-1-oxopropan-2-yl)carbamate], the inhibition at 10 µM was found to be 85.1% in the data set with SARS-CoV-2 (setting [6]) and 95% in the data set on HCoV (OC43). In addition, the CC50 in data set [5] came to 6 µM.

On to `CC(C)C[C@H](NC(=O)[C@H](Cc1cccc2ccccc12)NC(=O)OCc1ccccc1)C(=O)N[C@@H](C[C@@H]1CCCNC1=O)C(=O)C(F)(F)F` [Compound 39, Benzyl ((S)-1-(((S)-4-methyl-1-oxo-1-(((S)-4,4,4-trifluoro-3-oxo-1-((S)-2-oxopiperidin-3-yl)butan-2-yl)amino)pentan-2-yl)amino)-3-(naphthalen-1-yl)-1-oxopropan-2-yl)carbamate], for which the results for the inhibition at 10 µM in the data set with SARS-CoV-2 (setting [6]) and in the data set with HCoV (OC43) were 68% and 99.4%, respectively.

`Cc1cc(C(=O)NC(CC(C)C)C(=O)N[C@H](C=O)C[C@@H]2CCCNC2=O)no1` (some centres unmarked) [Compound 43]: the inhibition at 10 µM with SARS-CoV-2 (setting [7]) and with HCoV (OC43) was 99.9% throughout.

Consider `CCOC(=O)/C=C/[C@H](C[C@@H]1CCCNC1=O)NC(=O)C(CC(C)C)NC(=O)[C@H](Cc1cccc2ccccc12)NC(=O)c1cc(C)on1` (some centres unmarked) [Compound 44], for which the figures for the inhibition at 10 µM with SARS-CoV-2 (setting [7]) and in the data set on HCoV (OC43) were 99.5% and 99.7%, respectively.

With `CC(C)C[C@H](NC(=O)[C@H](Cc1cccc2ccccc12)NC(=O)OCc1ccccc1)C(=O)N[C@@H](C[C@@H]1CCCNC1=O)[C@@H](O)C#N` [Compound 128, Benzyl ((S)-1-(((S)-1-(((1R,2S)-1-cyano-1-hydroxy-3-((S)-2-oxopiperidin-3-yl)propan-2-yl)amino)-4-methyl-1-oxopentan-2-yl)amino)-3-(naphthalen-1-yl)-1-oxopropan-2-yl)carbamate], the inhibition at 10 µM in the data set on SARS-CoV-2 (setting [7]) came to 99.9%; with HCoV (OC43), 100%.

For the molecule `CC(C)C[C@H](NC(=O)[C@H](Cc1cccc2ccccc12)NC(=O)OCc1ccccc1)C(=O)N[C@@H](C[C@@H]1CCCNC1=O)[C@H](O)C#N` [Compound 129, benzyl ((S)-1-(((S)-1-(((1S,2S)-1-cyano-1-hydroxy-3-((S)-2-oxopiperidin-3-yl)propan-2-yl)amino)-4-methyl-1-oxopentan-2-yl)amino)-3-(naphthalen-1-yl)-1-oxopropan-2-yl)carbamate], in the data set on SARS-CoV-2 (10 μM, Vero cells), the “SARS-CoV-2 Inhibition at 10 μM (%)” value came out at 99.9%. In addition, in the data set on HCoV (OC43) (10 μM), the “OC43 Inhibition at 10 μM (%)” value turned out to be 99.9%.

As for `CC(C)CC(NC(=O)[C@H](Cc1cccc2ccccc12)NC(=O)OCc1ccccc1)C(=O)N[C@@H](C[C@@H]1CCNC1=O)C1OCCO1` (some centres unmarked) [Compound 136], the inhibition at 10 µM was 99.8% with SARS-CoV-2 (setting [7]) and 99.3% in the data set on HCoV (OC43).

The record behind these values is patent US12268723B2, “Peptidomimetics for the treatment of coronavirus and picorna virus infections” (priority 2019, dated 2025).
